Read-outs that look alike come from different tables or passages of the source.
Assays:
[1] = target: Human α2δ-1 Subunit of Cav2.2 Calcium Channel (Homo sapiens, UniProt P54289); assay: Binding assay to human α2δ-1 subunit of Cav2.2 calcium channel ([3H]-Gabapentin); details: human α2δ-1 enriched membranes, 15 nM [3H]-Gabapentin, read-out: Ki(nM) alpha2delta Hum
Description: Binding Assay to Human α2δ-1 Subunit of Cav2.2 Calcium Channel.
Human α2δ-1 enriched membranes (2.5 μg) were incubated with 15 nM of radiolabeled [3H]-Gabapentin in assay buffer containing Hepes-KOH 10 mM, pH 7.4.
(§1) NSB (non specific binding) was measured by adding 10 μM pregabalin. The binding of the test compound was measured in five different concentrations. After 60 min incubation at 27° C., binding reaction was terminated by filtering through Multiscreen GF/C (Millipore) presoaked in 0.5% polyethyleneimine in Vacuum Manifold Station, followed by 3 washes with ice-cold filtration buffer containing 50 mM Tris-HCl, pH 7.4.
(§2) Filter plates were dried at 60° C. for 1 hour and 30 μl of scintillation cocktail were added to each well before radioactivity reading.
(§3) Readings were performed in a Trilux 1450 Microbeta radioactive counter (Perkin Elmer).

[2] = target: Human Norepinephrine Transporter (NET) (Homo sapiens, UniProt P23975); assay: Binding assay to human norepinephrine transporter (NET) ([3H]-Nisoxetin); details: Table 2 (dual compounds); human NET enriched membranes, 5 nM [3H]-Nisoxetin; read-out: Ki(nM) NET Hum
Chain of Human Norepinephrine Transporter (NET) (P23975 whole entry): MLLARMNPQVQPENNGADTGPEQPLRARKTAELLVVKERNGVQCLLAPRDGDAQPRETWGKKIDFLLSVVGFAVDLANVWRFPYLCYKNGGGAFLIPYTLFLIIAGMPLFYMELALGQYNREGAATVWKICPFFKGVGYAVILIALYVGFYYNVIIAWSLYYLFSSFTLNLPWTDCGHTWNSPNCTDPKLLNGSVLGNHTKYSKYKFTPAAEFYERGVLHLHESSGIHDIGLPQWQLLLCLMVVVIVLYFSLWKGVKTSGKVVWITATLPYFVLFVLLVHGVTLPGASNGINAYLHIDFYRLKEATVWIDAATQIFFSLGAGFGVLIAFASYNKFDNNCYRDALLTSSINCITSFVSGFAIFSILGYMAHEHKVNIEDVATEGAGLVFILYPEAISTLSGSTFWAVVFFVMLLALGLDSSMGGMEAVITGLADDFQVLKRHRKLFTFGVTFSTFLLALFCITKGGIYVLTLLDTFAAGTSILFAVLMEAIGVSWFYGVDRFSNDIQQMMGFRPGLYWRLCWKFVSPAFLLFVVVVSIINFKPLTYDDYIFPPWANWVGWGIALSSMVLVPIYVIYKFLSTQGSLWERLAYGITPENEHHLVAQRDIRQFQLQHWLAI
Description: Binding Assay to Human Norepinephrine Transporter (NET).
Human norepinephrine transporter (NET) enriched membranes (5 μg) were incubated with 5 nM of radiolabeled [3H]-Nisoxetin in assay buffer containing 50 mM Tris-HCl, 120 mM NaCl, 5 mM KCl, pH 7.4.
as §1, with “desipramine.” for “pregabalin.”, “4°” for “27°”, “Tris-HCl, 0.9% NaCl,” for “Tris-HCl,”
as §2, §3

Chain of Human α2δ-1 Subunit of Cav2.2 Calcium Channel (P54289 25-1103): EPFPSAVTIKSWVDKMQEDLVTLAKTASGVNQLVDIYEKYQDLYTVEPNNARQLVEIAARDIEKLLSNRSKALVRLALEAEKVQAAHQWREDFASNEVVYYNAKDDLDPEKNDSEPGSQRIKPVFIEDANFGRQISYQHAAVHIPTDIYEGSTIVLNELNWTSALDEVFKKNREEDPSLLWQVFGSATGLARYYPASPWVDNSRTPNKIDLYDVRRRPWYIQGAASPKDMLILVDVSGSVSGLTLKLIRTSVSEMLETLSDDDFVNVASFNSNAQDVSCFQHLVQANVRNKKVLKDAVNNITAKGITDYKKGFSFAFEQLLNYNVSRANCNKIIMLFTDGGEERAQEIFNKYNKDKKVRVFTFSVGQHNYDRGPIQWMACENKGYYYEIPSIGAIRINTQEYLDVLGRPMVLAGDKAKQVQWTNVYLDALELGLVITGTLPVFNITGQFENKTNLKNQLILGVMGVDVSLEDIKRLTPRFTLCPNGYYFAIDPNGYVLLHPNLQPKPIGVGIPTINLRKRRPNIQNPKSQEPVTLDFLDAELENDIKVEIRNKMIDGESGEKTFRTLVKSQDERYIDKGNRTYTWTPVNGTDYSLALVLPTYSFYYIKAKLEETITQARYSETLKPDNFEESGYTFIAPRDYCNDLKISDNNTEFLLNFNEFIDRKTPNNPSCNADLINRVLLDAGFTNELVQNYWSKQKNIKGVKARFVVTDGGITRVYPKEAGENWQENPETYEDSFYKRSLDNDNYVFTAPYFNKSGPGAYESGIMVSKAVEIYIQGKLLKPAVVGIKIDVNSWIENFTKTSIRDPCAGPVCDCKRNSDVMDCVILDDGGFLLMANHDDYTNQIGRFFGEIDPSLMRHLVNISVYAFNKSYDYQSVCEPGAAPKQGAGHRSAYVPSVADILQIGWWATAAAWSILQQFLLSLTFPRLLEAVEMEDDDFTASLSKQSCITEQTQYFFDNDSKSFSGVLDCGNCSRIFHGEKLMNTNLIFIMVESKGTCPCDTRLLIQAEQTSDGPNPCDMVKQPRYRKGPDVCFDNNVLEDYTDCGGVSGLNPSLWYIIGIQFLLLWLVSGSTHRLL

Row | Structure (SMILES) | Ki ([1]; Table 1) | Ki ([1]; Table 2 (dual compounds)) | Ki [2]
1 | CNCCC(Oc1cccc(CNCc2ccccc2)c1)c1cccs1 (stereo not drawn) [Example 2, 3-(3-((Benzylamino)methyl)phenoxy)-N-methyl-3-(thiophen-2-yl)propan-1-amine] | 500 to 3000 nM | 500 to 3000 nM | 100 to 500 nM
2 | CNCCC(Oc1cccc(CN(C)Cc2ccccc2)c1)c1cccs1 (stereo not drawn) [Example 6, 3-(3-((Benzyl(methyl)amino)methyl)phenoxy)-N-methyl-3-(thiophen-2-yl)propan-1-amine] | 100 to 500 nM | 100 to 500 nM | 500 to 1000 nM
3 | CNCCC(Oc1cccc(C(=O)Nc2ccccc2)c1)c1ccccc1 (stereo not drawn) [Example 13, 3-(3-(Methylamino)-1-phenylpropoxy)-N-phenylbenzamide] | ≥ 3000 nM | ≥ 3000 nM | 500 to 1000 nM
4 | CNCCC(Oc1cccc(C(=O)Nc2cccc(-c3nnc(C)o3)c2)c1)c1ccccc1 (stereo not drawn) [Example 14, N-(3-(5-methyl-1,3,4-oxadiazol-2-yl)phenyl)-3-(3-(methylamino)-1-phenylpropoxy)benzamide] | ≥ 3000 nM | ≥ 3000 nM | 100 to 500 nM
5 | CNCCC(Oc1cccc(C(=O)Nc2cccnc2)c1)c1ccccc1 (stereo not drawn) [Example 15, 3-(3-(Methylamino)-1-phenylpropoxy)-N-(pyridin-3-yl)benzamide] | ≥ 3000 nM | ≥ 3000 nM | 100 to 500 nM
6 | CNCCC(Oc1cccc(C(=O)NCc2ccccc2)c1)c1ccccc1 (stereo not drawn) [Example 17, N-benzyl-3-(3-(methylamino)-1-phenylpropoxy)benzamide] | ≥ 3000 nM | ≥ 3000 nM | 500 to 1000 nM
7 | CNCCC(Oc1cccc(C(=O)NCc2ccccn2)c1)c1ccccc1 (stereo not drawn) [Example 18, 3-(3-(Methylamino)-1-phenylpropoxy)-N-(pyridin-2-ylmethyl)benzamide] | ≥ 3000 nM | ≥ 3000 nM | 500 to 1000 nM
8 | CNCCNC(=O)c1cccc(OC(CCNC)c2ccccc2)c1 (stereo not drawn) [Example 20, 3-(3-(Methylamino)-1-phenylpropoxy)-N-(2-(methylamino)ethyl)benzamide] | 500 to 3000 nM | 500 to 3000 nM | 500 to 1000 nM

Next, values leading:

Row | Ki ([1]; Table 1) | Ki ([1]; Table 2 (dual compounds)) | Ki [2] | Structure (SMILES)
9 | ≥ 3000 nM | – | – | CNCCC(OCc1cccc(N(C(C)=O)c2ccccc2)c1)c1ccccc1 (stereo not drawn) [Example 61, N-(3-((3-(methylamino)-1-phenylpropoxy)methyl)phenyl)-N-phenylacetamide]
10 | ≥ 3000 nM | – | – | CNCCC(Oc1cccc(N(C)C(C)=O)c1)c1cccs1 (stereo not drawn) [Example 62, N-methyl-N-(3-(3-(methylamino)-1-(thiophen-2-yl)propoxy)phenyl)acetamide]
11 | ≥ 3000 nM | – | – | CNCCC(Oc1cccc(N(C)C(=O)c2ccccc2)c1)c1cccs1 (stereo not drawn) [Example 63, N-methyl-N-(3-(3-(methylamino)-1-(thiophen-2-yl)propoxy)phenyl)benzamide]
12 | ≥ 3000 nM | – | – | CCCC(=O)N(C)c1cccc(OC(CCNC)c2cccs2)c1 (stereo not drawn) [Example 64, N-methyl-N-(3-(3-(methylamino)-1-(thiophen-2-yl)propoxy)phenyl)butyramide]
13 | ≥ 3000 nM | – | – | CNCCC(Oc1cccc(N(C)C(=O)c2cccnc2)c1)c1cccs1 (stereo not drawn) [Example 65, N-methyl-N-(3-(3-(methylamino)-1-(thiophen-2-yl)propoxy)phenyl)nicotinamide]
14 | 500 to 3000 nM | – | – | CNCCC(Oc1cccc(C(=O)Nc2ccccc2)c1)c1cccs1 (stereo not drawn) [Example 66, 3-(3-(Methylamino)-1-(thiophen-2-yl)propoxy)-N-phenylbenzamide]
15 | ≥ 3000 nM | – | – | CNCCC(Oc1cccc(C(=O)N(C)c2ccccc2)c1)c1cccs1 (stereo not drawn) [Example 67, N-methyl-3-(3-(methylamino)-1-(thiophen-2-yl)propoxy)-N-phenylbenzamide]
16 | ≥ 3000 nM | – | – | CNCCC(Oc1cccc(C(=O)N(C)c2cccnc2)c1)c1ccccc1 (stereo not drawn) [Example 68, N-methyl-3-(3-(methylamino)-1-phenylpropoxy)-N-(pyridin-3-yl)benzamide]
17 | ≥ 3000 nM | – | – | CNCCC(Oc1cccc(C(=O)N(C)c2ccccc2)c1)c1ccccc1 (stereo not drawn) [Example 69, N-methyl-3-(3-(methylamino)-1-phenylpropoxy)-N-phenylbenzamide]

Reference: patent US11111220B2, “Propanamine derivatives for treating pain and pain related conditions” (ESTEVE PHARMACEUTICALS, S.A., priority 2017, dated 2021)
